Experimental data as given in patent US11029279B2, “Method of detecting cells” (National Tsing Hua University, priority 2018, dated 2021).

Legend:
[1] = system: human colorectal cancer cell line HCT-8 cells; assay: Sensor device response to depolarization induced by KCl; type: cell-based
Experimental: (§1) In the present example, the sensor device 200 shown in FIG. 2 was used for detection, wherein the distance between the response electrode of the sensor device and the gate end: 65 μm; and the area of the detection region: 10×60 μm^2. Moreover, a specific aptamer of a human colorectal cancer cell line HCT-8 cell was bonded to the response electrode of the sensor device.
(§2) In the present embodiment, source and drain properties were measured and recorded using an Agilent B1530/B1500A semiconductor parameter analyzer. Operating conditions: VD=2.5 V; Vg=2 V; pulse duration=50 μs. The change in source current before and after a gate bias is applied is defined as the current gain.
In the present embodiment, human colorectal cancer cell line HCT-8 cells were used as the target cells. The HCT-8 cells were cultured in an RPMI-1640 cell culture medium (Invitrogen Co., USA). During a subsequent electrical measurement, the HCT-8 cells were suspended in a Hank balanced salt solution having calcium ions and magnesium ions (hereinafter HBSS w/Ca&Mg), a Hank balanced salt solution without calcium ions and magnesium ions (hereinafter HBSS w/o Ca&Mg), or a Hank balanced salt solution having calcium ions (hereinafter HBSS w/Ca) to prepare a test solution. In the Hank balanced salt solution having calcium ions and magnesium ions (HBSS w/Ca&Mg), the calcium ions were 1.2 mM and the magnesium ions are 0.8 mM. […]

[2] = system: human colorectal cancer cell line HCT-8 cells; assay: Cadmium block of calcium channels (sensor device response); type: cell-based
Experimental: as §1, §2
In the present embodiment, human colorectal cancer cell line HCT-8 cells were used as the target cells. The HCT-8 cells were cultured in an RPMI-1640 cell culture medium (Invitrogen Co., USA). […]
In experimental example 3, HBSS w/Ca and HBSS w/Ca containing different cadmium ion concentrations (5 uM, 10 uM, 20 uM, 50 uM, and 100 uM) are used as reference solutions, and the baselines of the sensor device were calculated using the reference solutions. […]

SMILES	value of the detection current (second current gain minus first current gain, Δ current gain) ([1]; KCl concentration of 5 mM in HBSS w/Ca&Mg, cells have polarized potential)	value of the detection current (second current gain minus first current gain, Δ current gain) ([1]; KCl concentration of 10 mM to 30 mM in HBSS w/Ca&Mg, cells depolarized)	value of the detection current (Δ current gain) ([2]; cadmium concentration further increased from 20 μM to 100 μM in HBSS w/Ca, cells depolarized)	detection current (Δ current gain) ([2]; cadmium ion concentrations of 10 μM and 20 μM in HBSS w/Ca, cells repolarized)
[Cl-].[K+] [KCl]	positive	negative		
[Cd+2] [cadmium ion]			negative	positive
